Active and inactive are the calls of the source. Rule as the data show it, for most assays here: actives have a measured IC50 and inactives only a lower limit.
Legend:
[1] = test system: INS1; assay: INS-1E survival protection against cytokine death – cell-based, luminescence, retest, dose response (AID 449756); type: functional; settings: Rattus norvegicus;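 also: cell death triggered by IL-1 beta plus TNF-alpha plus IFN-gamma mixture; protective hits raise ATP signal compared with cytokine alone wells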
[2] = biological target: T1, Caspase-3 (Homo sapiens, UniProt P42574); type: functional;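 also: Dose-response selectivity test against caspase-3 for candidate inhibitors of sentrin-specific proteases (SENPs)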
T1 sequence (P42574 whole entry): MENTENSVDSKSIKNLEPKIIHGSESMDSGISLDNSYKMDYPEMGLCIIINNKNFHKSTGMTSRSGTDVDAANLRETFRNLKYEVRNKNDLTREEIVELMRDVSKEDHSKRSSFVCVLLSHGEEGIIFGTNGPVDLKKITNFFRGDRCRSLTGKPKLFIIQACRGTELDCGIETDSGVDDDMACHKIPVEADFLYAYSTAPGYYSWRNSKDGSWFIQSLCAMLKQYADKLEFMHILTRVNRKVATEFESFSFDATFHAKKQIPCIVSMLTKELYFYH

[3] = biological target: T2, Sentrin-specific protease 7 (Homo sapiens, UniProt Q9BQF6); type: functional;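 also: Luminescence-based dose-response confirmation of ultra-high-throughput screening hits, measuring inhibition of SENP7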
T2 sequence (Q9BQF6 whole entry): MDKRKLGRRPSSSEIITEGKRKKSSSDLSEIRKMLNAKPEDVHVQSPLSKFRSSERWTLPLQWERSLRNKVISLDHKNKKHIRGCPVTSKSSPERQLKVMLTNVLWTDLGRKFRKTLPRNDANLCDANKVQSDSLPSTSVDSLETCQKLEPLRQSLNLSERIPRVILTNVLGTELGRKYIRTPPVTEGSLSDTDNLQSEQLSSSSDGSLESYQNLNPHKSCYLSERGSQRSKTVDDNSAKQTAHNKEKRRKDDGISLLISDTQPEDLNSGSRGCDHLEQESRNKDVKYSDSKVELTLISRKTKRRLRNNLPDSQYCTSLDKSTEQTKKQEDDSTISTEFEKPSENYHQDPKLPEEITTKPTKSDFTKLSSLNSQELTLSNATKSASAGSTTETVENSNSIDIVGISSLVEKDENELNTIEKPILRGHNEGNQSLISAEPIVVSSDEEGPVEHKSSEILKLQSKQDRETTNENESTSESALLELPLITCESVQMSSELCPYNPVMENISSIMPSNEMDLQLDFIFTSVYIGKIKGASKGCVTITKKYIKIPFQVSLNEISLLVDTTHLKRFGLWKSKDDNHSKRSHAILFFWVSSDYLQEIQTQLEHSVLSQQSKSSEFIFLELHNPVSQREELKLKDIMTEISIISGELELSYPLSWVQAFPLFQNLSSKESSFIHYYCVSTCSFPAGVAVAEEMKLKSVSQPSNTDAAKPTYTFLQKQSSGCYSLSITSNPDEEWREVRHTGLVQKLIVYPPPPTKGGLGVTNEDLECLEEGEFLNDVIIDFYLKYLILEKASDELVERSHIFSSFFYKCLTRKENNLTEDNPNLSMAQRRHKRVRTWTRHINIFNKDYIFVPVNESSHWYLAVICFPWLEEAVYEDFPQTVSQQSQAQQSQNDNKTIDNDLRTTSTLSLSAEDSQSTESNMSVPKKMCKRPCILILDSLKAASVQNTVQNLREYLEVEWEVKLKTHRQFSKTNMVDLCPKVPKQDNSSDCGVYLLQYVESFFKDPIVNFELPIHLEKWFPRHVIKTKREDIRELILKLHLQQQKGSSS

[4] = biological target: T3, Sentrin-specific protease 6 (Homo sapiens, UniProt Q9GZR1); type: functional;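 also: Luminescence-based dose-response confirmatory assay of SENP6 inhibition, following up an ultra-high-throughput screen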
T3 sequence (Q9GZR1 whole entry): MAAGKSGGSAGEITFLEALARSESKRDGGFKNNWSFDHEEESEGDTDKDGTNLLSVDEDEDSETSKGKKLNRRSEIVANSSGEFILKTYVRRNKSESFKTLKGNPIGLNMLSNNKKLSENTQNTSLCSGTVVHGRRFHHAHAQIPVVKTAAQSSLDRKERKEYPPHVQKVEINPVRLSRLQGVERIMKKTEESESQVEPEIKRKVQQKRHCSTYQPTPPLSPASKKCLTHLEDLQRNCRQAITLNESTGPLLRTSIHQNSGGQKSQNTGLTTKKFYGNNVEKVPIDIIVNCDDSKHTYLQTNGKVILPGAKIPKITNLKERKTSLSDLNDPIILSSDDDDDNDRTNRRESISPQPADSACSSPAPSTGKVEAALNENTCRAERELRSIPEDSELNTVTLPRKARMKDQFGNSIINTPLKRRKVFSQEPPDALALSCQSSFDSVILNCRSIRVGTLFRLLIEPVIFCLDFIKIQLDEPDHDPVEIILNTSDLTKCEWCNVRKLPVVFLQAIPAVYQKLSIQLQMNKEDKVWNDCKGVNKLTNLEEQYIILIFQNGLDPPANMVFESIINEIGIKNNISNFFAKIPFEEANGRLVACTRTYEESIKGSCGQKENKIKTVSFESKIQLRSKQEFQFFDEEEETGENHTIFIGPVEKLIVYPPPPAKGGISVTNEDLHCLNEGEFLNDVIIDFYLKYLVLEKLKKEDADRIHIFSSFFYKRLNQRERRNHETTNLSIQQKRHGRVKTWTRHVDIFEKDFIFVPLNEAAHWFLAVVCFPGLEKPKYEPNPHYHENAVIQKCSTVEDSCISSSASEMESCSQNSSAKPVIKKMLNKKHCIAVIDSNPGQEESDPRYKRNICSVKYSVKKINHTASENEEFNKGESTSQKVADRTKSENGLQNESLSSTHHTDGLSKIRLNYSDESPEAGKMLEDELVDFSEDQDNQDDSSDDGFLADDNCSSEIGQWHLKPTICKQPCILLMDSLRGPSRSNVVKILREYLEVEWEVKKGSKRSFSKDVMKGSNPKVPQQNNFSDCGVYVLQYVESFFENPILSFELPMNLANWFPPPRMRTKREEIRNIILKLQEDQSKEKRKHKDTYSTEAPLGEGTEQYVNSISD

[5] = biological target: T4, Sentrin-specific protease 8 (Homo sapiens, UniProt Q96LD8); type: functional;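 also: luminescence read-out of SENP8 inhibition, dose-response confirmation following an ultra-high-throughput screen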
T4 sequence (Q96LD8 whole entry): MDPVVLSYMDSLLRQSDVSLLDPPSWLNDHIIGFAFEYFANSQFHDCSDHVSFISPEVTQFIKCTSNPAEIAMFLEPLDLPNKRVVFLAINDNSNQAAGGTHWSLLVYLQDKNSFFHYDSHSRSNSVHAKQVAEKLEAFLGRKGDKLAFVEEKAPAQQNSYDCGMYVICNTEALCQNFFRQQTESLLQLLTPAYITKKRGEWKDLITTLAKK

[6] = biological target: Tyrosyl-DNA phosphodiesterase 2 (Homo sapiens, UniProt O95551); assay: potency against TDP2 phosphodiesterase activity – biochemical, epi absorbance, IC50, dose response (AID 743297)
Sequence of Tyrosyl-DNA phosphodiesterase 2 (O95551 whole entry): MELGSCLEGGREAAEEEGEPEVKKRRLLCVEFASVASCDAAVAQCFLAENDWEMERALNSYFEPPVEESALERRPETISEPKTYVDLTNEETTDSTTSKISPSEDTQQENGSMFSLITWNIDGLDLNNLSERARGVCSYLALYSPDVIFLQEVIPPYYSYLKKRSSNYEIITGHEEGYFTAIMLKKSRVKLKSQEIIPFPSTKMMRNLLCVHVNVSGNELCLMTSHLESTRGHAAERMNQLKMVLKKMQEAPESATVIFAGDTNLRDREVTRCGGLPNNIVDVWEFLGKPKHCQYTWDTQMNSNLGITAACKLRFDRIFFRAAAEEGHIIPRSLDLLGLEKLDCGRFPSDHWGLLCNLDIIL

CCCCCCCCCCOC(=O)Cn1c(COc2cccc(OC)c2)[n+](C)c2ccccc21
active: AC50 [1] 2.94 µM

COc1cc(OC)c(NC2=CC(=O)C(=O)c3ccccc32)cc1Cl
active: IC50 [2] 12.2 µM | IC50 [3] 4.56 µM | IC50 [4] 2.25 µM | IC50 [5] 3.62 µM | AC50 [1] 3.57 µM

CCc1ccc(S(=O)(=O)/N=C2\C=C(Nc3cccc(C(=O)O)c3)C(=O)c3ccccc32)cc1
active: IC50 [6] 2.2 µM

COc1cc2c(cc1OC)-c1c(OC)c(OC)cc3c1C(C2)N(C)CC3 (configuration not stated)
active: IC50 [2] 0.907 µM | IC50 [3] 4.63 µM | IC50 [4] 1.86 µM | IC50 [5] 5.47 µM | IC50 [6] 4.6 µM

From ChEMBL document CHEMBL1201862, “PubChem BioAssay data set” (2004)
